Our source for the Kd and Ki values is ChEMBL document CHEMBL3638614, “Diaza-spiro[5.5]undecanes” (2013).

The target in assay [1] is T1, Orexin receptor type 2 (Homo sapiens, UniProt O43614).
T1 sequence (O43614 whole entry): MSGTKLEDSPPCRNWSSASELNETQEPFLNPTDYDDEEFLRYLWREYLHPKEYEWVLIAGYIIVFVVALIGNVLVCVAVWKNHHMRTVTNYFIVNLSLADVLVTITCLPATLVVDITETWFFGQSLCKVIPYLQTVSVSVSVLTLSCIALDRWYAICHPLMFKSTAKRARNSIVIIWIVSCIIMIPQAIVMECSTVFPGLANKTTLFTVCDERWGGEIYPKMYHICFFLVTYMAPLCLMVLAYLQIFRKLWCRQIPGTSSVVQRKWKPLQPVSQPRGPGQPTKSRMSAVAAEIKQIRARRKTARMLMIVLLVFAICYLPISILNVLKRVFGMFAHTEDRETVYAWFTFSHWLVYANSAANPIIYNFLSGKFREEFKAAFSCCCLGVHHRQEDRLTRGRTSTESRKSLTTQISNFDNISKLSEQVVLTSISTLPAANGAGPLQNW
Briefly: (§1) Radioligand Binding Assay : Radioligand binding assay using orexin receptor.

Assay [2] concerns the target T2, Orexin/Hypocretin receptor type 1 (Homo sapiens, UniProt O43613).
T2 sequence (O43613 whole entry): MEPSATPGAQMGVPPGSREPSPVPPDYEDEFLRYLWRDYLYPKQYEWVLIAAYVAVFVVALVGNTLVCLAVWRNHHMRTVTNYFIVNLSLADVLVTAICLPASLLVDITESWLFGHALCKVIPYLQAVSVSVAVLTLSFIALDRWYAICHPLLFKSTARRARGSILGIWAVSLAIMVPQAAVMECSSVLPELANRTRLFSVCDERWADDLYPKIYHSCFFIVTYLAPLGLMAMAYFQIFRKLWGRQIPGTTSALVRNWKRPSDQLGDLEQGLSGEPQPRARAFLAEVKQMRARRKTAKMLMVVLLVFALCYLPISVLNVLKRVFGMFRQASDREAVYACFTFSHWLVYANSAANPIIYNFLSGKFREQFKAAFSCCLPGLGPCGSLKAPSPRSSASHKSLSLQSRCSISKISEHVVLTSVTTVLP
Described as §1.

Assay [3] addresses T1, Orexin receptor type 2. Briefly: (§2) FLIPR Assay : FLIPR assay using orexin receptor.
Assay [4] concerns the target T2, Orexin/Hypocretin receptor type 1. Described as §2.

A word on the Kd: it is the free concentration of one partner at which half of the binding sites on the other are occupied at equilibrium, for simple one-to-one binding. Higher therefore signals lower affinity. What is called Ki is a dissociation constant, usually derived from enzyme kinetics or from competition with a known ligand. Low values mean a stronger hold on the target, high ones a looser hold on the target.

For `Cn1c(N2CCC3(CCCN(Cc4ccccc4)C3=O)CC2)nc2ccccc21`, the Kd in assay [1] and in assay [2] was over 10000 nM in each case.
`O=C1N(Cc2cccc3ccccc23)CCCC12CCN(c1nc3ccccc3[nH]1)CC2`: the Ki in assay [3] came out at 126 nM; in assay [4] it was 2460 nM. Moreover, the Kd in assay [1] was 755 nM; in assay [2], over 10000 nM.
As for `O=C1N(Cc2cc(Cl)cc3c2OCOC3)CCCC12CCN(c1cnc3ccccc3n1)CC2`, the figures for the Ki in assay [3] and in assay [4] were 739 nM and 1540 nM, respectively.
